Legend:
Bordetella pertussis = assay: Expected efficacy of anti-bacterial agents against various bacteria (Tables 5 and 6); conditions: Gram: neg
Proteus mirabilis = assay: as above; conditions: Gram: neg
Enterobacter sakazakii = assay: as above; conditions: Gram: neg
Neisseria gonorrhoeae = assay: as above; conditions: Gram: neg
Chlamydia trachomatis = assay: as above; conditions: Gram: n/a
Pseudomonas aeruginosa = assay: as above; conditions: Gram: neg
Salmonella typhi = assay: as above; conditions: Gram: neg
Campylobacter jejuni = assay: as above; conditions: Gram: neg
Corynebacterium jeikeium = assay: as above; conditions: Gram: pos
Yersinia pestis = conditions: expected efficacy; Yersinia pestis; Gram: neg
Enterococcus faecalis = assay: Expected efficacy of anti-bacterial agents against various bacteria (Tables 5 and 6); conditions: Gram: pos
Klebsiella pneumoniae = assay: as above; conditions: Gram: neg
Rickettsiae = conditions: expected efficacy; Rickettsiae; Gram: neg
Mycoplasma pneumoniae = assay: Expected efficacy of anti-bacterial agents against various bacteria (Tables 5 and 6); conditions: Gram: n/a
Citrobacter freundii = assay: as above; conditions: Gram: neg
Streptococcus agalactiae = assay: as above; conditions: Gram: pos
Chlamydia psittaci = conditions: expected efficacy; Chlamydia psittaci; Gram: n/a
Enterobacter cloacae = assay: Expected efficacy of anti-bacterial agents against various bacteria (Tables 5 and 6); conditions: Gram: neg
[1] = system: Klebsiella (Calymmatobacterium) granulomatis; assay: as above; conditions: Gram: neg
Haemophilus ducreyi = assay: as above; conditions: Gram: neg
Peptostreptococcus = assay: as above; conditions: Gram: pos
Neisseria meningitidis = assay: as above; conditions: Gram: neg
Streptococcus pyogenes = assay: as above; conditions: Gram: pos
Enterobacter aerogenes = assay: as above; conditions: Gram: neg
Serratia marcescens = assay: as above; conditions: Gram: neg
Haemophilus influenzae = assay: as above; conditions: Gram: neg
Shigella flexneri = assay: as above; conditions: Gram: neg
[2] = system: Viridans group streptococci; assay: as above; conditions: Gram: pos
Clostridium difficile = assay: as above; conditions: Gram: anaer
Francisella tularensis = conditions: expected efficacy; Francisella tularensis; Gram: neg
Vibrio cholerae = assay: Expected efficacy of anti-bacterial agents against various bacteria (Tables 5 and 6); conditions: Gram: neg
Diphtheroids = assay: as above; conditions: Gram: pos
Clostridium perfringens = conditions: expected efficacy; Clostridium perfringens; Gram: anaer
Shigella dysenteriae = assay: Expected efficacy of anti-bacterial agents against various bacteria (Tables 5 and 6); conditions: Gram: neg
Providencia rettgeri = assay: as above; conditions: Gram: neg
Escherichia coli = assay: as above; conditions: Gram: neg
Morganella morganii = assay: as above; conditions: Gram: neg
Klebsiella oxytoca = assay: as above; conditions: Gram: neg
[3] = system: Acinetobacter calcoaceticus; assay: as above; conditions: Gram: neg
Citrobacter diversus = assay: as above; conditions: Gram: neg
[4] = system: Haemophilus parainfluenzae; assay: as above; conditions: Gram: neg
Proteus vulgaris = assay: as above; conditions: Gram: neg
Legionella pneumophila = conditions: expected efficacy; Legionella pneumophila; Gram: neg
[5] = system: Staphylococcus epidermidis; assay: Expected efficacy of anti-bacterial agents against various bacteria (Tables 5 and 6); conditions: Gram: pos
Shigella sonnei = assay: as above; conditions: Gram: neg
Bacteroides fragilis = assay: as above; conditions: Gram: anaer
Providencia stuartii = assay: as above; conditions: Gram: neg
Acinetobacter lwoffii = assay: as above; conditions: Gram: neg
Moraxella catarrhalis = assay: as above; conditions: Gram: neg
Enterococcus faecium = assay: as above; conditions: Gram: pos
Chlamydia pneumoniae = assay: as above; conditions: Gram: n/a
[6] = system: Staphylococcus aureus (MSSA); assay: as above; conditions: Gram: pos
Shigella boydii = assay: as above; conditions: Gram: neg
Acinetobacter baumannii = assay: as above; conditions: Gram: neg
[7] = system: Methicillin resistant staph aureus (MRSA); assay: as above; conditions: Gram: pos
Streptococcus pneumoniae = assay: as above; conditions: Gram: pos
[8] = system: Corynebacterium urealyticum; assay: as above; conditions: Gram: pos
Pseudomonas fluorescens = assay: as above; conditions: Gram: neg
Brucella species = conditions: expected efficacy; Brucella species; Gram: neg

## CO/N=C(\C(=O)N[C@@H]1C(=O)N2C(C(=O)O)=C(CSc3nc(=O)c(=O)[nH]n3C)CS[C@H]12)c1csc(N)n1 [Ceftriaxone]
Bordetella pertussis
  Efficacy of various antibiotic agents: no
Proteus mirabilis
  Efficacy of various antibiotic agents: yes
Enterobacter sakazakii
  Efficacy of various antibiotic agents: yes
Neisseria gonorrhoeae
  Efficacy of various antibiotic agents: yes
Chlamydia trachomatis
  Efficacy of various antibiotic agents: no
Pseudomonas aeruginosa
  Efficacy of various antibiotic agents: no
Salmonella typhi
  Efficacy of various antibiotic agents: yes
Campylobacter jejuni
  Efficacy of various antibiotic agents: no
Corynebacterium jeikeium
  Efficacy of various antibiotic agents: no
Yersinia pestis
  Efficacy of various antibiotic agents: no
Enterococcus faecalis
  Efficacy of various antibiotic agents: no
Klebsiella pneumoniae
  Efficacy of various antibiotic agents: yes
Rickettsiae
  Efficacy of various antibiotic agents: no
Mycoplasma pneumoniae
  Efficacy of various antibiotic agents: no
Citrobacter freundii
  Efficacy of various antibiotic agents: yes
Streptococcus agalactiae
  Efficacy of various antibiotic agents: yes
Chlamydia psittaci
  Efficacy of various antibiotic agents: no
Enterobacter cloacae
  Efficacy of various antibiotic agents: yes
[1]
  Efficacy of various antibiotic agents: yes
Haemophilus ducreyi
  Efficacy of various antibiotic agents: yes
Peptostreptococcus
  Efficacy of various antibiotic agents: yes
Neisseria meningitidis
  Efficacy of various antibiotic agents: yes
Streptococcus pyogenes
  Efficacy of various antibiotic agents: yes
Enterobacter aerogenes
  Efficacy of various antibiotic agents: yes
Serratia marcescens
  Efficacy of various antibiotic agents: yes
Haemophilus influenzae
  Efficacy of various antibiotic agents: yes
Shigella flexneri
  Efficacy of various antibiotic agents: yes
[2]
  Efficacy of various antibiotic agents: yes
Clostridium difficile
  Efficacy of various antibiotic agents: no
Francisella tularensis
  Efficacy of various antibiotic agents: no
Vibrio cholerae
  Efficacy of various antibiotic agents: no
Diphtheroids
  Efficacy of various antibiotic agents: no
Clostridium perfringens
  Efficacy of various antibiotic agents: yes
Shigella dysenteriae
  Efficacy of various antibiotic agents: yes
Providencia rettgeri
  Efficacy of various antibiotic agents: yes
Escherichia coli
  Efficacy of various antibiotic agents: yes
Morganella morganii
  Efficacy of various antibiotic agents: yes
Klebsiella oxytoca
  Efficacy of various antibiotic agents: yes
[3]
  Efficacy of various antibiotic agents: no
Citrobacter diversus
  Efficacy of various antibiotic agents: yes
[4]
  Efficacy of various antibiotic agents: yes
Proteus vulgaris
  Efficacy of various antibiotic agents: yes
Legionella pneumophila
  Efficacy of various antibiotic agents: no
[5]
  Efficacy of various antibiotic agents: yes
Shigella sonnei
  Efficacy of various antibiotic agents: yes
Bacteroides fragilis
  Efficacy of various antibiotic agents: yes
Providencia stuartii
  Efficacy of various antibiotic agents: yes
Acinetobacter lwoffii
  Efficacy of various antibiotic agents: no
Moraxella catarrhalis
  Efficacy of various antibiotic agents: yes
Enterococcus faecium
  Efficacy of various antibiotic agents: no
Chlamydia pneumoniae
  Efficacy of various antibiotic agents: no
[6]
  Efficacy of various antibiotic agents: yes
Shigella boydii
  Efficacy of various antibiotic agents: yes
Acinetobacter baumannii
  Efficacy of various antibiotic agents: no
[7]
  Efficacy of various antibiotic agents: no
Streptococcus pneumoniae
  Efficacy of various antibiotic agents: yes
[8]
  Efficacy of various antibiotic agents: no

## Colistimethate
Bordetella pertussis
  Efficacy of various antibiotic agents: no
Proteus mirabilis
  Efficacy of various antibiotic agents: no
Enterobacter sakazakii
  Efficacy of various antibiotic agents: yes
Neisseria gonorrhoeae
  Efficacy of various antibiotic agents: no
Chlamydia trachomatis
  Efficacy of various antibiotic agents: no
Pseudomonas aeruginosa
  Efficacy of various antibiotic agents: yes
Corynebacterium jeikeium
  Efficacy of various antibiotic agents: no
Enterococcus faecalis
  Efficacy of various antibiotic agents: no
Klebsiella pneumoniae
  Efficacy of various antibiotic agents: yes
Mycoplasma pneumoniae
  Efficacy of various antibiotic agents: no
Streptococcus agalactiae
  Efficacy of various antibiotic agents: no
Chlamydia psittaci
  Efficacy of various antibiotic agents: no
Enterobacter cloacae
  Efficacy of various antibiotic agents: yes
[1]
  Efficacy of various antibiotic agents: yes
Peptostreptococcus
  Efficacy of various antibiotic agents: no
Neisseria meningitidis
  Efficacy of various antibiotic agents: no
Streptococcus pyogenes
  Efficacy of various antibiotic agents: no
Enterobacter aerogenes
  Efficacy of various antibiotic agents: yes
Serratia marcescens
  Efficacy of various antibiotic agents: no
[2]
  Efficacy of various antibiotic agents: no
Pseudomonas fluorescens
  Efficacy of various antibiotic agents: yes
Clostridium difficile
  Efficacy of various antibiotic agents: no
Vibrio cholerae
  Efficacy of various antibiotic agents: no
Diphtheroids
  Efficacy of various antibiotic agents: no
Providencia rettgeri
  Efficacy of various antibiotic agents: no
Escherichia coli
  Efficacy of various antibiotic agents: yes
Klebsiella oxytoca
  Efficacy of various antibiotic agents: yes
[4]
  Efficacy of various antibiotic agents: no
Proteus vulgaris
  Efficacy of various antibiotic agents: no
Legionella pneumophila
  Efficacy of various antibiotic agents: no
[5]
  Efficacy of various antibiotic agents: no
Bacteroides fragilis
  Efficacy of various antibiotic agents: no
Providencia stuartii
  Efficacy of various antibiotic agents: no
Brucella species
  Efficacy of various antibiotic agents: no
Moraxella catarrhalis
  Efficacy of various antibiotic agents: no
Enterococcus faecium
  Efficacy of various antibiotic agents: no
Chlamydia pneumoniae
  Efficacy of various antibiotic agents: no
[6]
  Efficacy of various antibiotic agents: no
[7]
  Efficacy of various antibiotic agents: no
Streptococcus pneumoniae
  Efficacy of various antibiotic agents: no
[8]
  Efficacy of various antibiotic agents: no

From patent US20190255086A1, “Compositions and Methods for Treating an Infection” (CMPD Licensing, LLC, priority 2015, published 2019)
